According to patent US20120009152A1, “NITRIC OXIDE DONORS FOR TREATMENT OF DISEASE AND INJURY” (priority 2002, published 2012):

Tests used:
[1] = tested on: rats subjected to embolic MCA occlusion; assay: Rotarod test after embolic MCA occlusion, SNAP study; type: in vivo, rat; details: SNAP at 24 hours after MCA occlusion; by 4 days after stroke, persisted to 14 days
Procedure: (§1) The question arises as to the specificity of this NO agent for the induction of neurogenesis and functional benefit. Are the effects specific for DETA/NONOate or would other agents that donate NO likewise provide functional benefit? To test this question, rats were treated with another NO donor, S-nitroso-N-acetylpenicillamine (SNAP, Sigma) that is structurally different from DETA/NONOate. Young, male adult Wistar rats were subjected to embolic MCA occlusion (Zhang et al., 1997). SNAP at a dose of 30 μg/kg was intravenously administered to rats as a bolus followed by 300 μg/kg/h infusion for 60 minutes at 24 hours after embolic MCA occlusion. As functional outcome measures, the rotarod test which assesses motor function such as coordination and balance (Zhang et al., 2000), the adhesive removal test which measures forelimb somato-sensorimotor asymmetries (Schallert et al., 2000), and animal body weight were measured prior to treatment and at 2, 4, 7, and 14 days after treatment. Animals were sacrificed at 14 days after stroke and the infarct volume was measured (Zhang, et al., 1997). […] These benefits persisted to the time of sacrifice at 14 days post stroke. […] Thus, the effect of the treatment is one of restorative therapy not neuroprotective therapy. […] Functional improvement in these animals is associated with change and remodeling of brain. […]

[2] = Animal body weight after embolic MCA occlusion, SNAP study; type: in vivo, rat; details: SNAP at 24 hours after MCA occlusion; 7 days after stroke; vs saline
Procedure: as §1

[3] = tested on: rats subjected to embolic MCA occlusion; assay: Infarct volume after embolic MCA occlusion, SNAP study; type: in vivo, rat; details: SNAP 30 μg/kg iv bolus then 300 μg/kg/h for 60 minutes at 24 hours after MCA occlusion; 14 days; vs saline
Procedure: as §1

[4] = tested on: rats subjected to embolic MCA occlusion; assay: Adhesive removal test after embolic MCA occlusion, SNAP study; type: in vivo, rat; details: SNAP at 24 hours after MCA occlusion; by 4 days after stroke, persisted to 14 days
Procedure: as §1

[5] = tested on: Mouse brain-derived endothelial cells; assay: Capillary-like tube formation assay; type: cell-based
Procedure: An in vitro angiogenesis assay was performed. Briefly, 0.8 ml of growth factor reduced Matrigel (Becton Dickinson) was added to pre-chilled 35 mm culture dishes and allowed to polymerize at 37° C. for 2 to 5 hours. […] For quantitative measurements of capillary tube formation, three random areas of Matrigel dishes were imaged and the length of continuous cords of three or more cells was measured.

cGMP = details: local administration to rat brain slices; cited from earlier work
dog cerebral arteries = details: cited from earlier work
basilar artery = details: rats; cited from earlier work

CC(=O)N[C@H](C(=O)O)C(C)(C)SN=O (racemic) [SNAP, S-nitroso-N-acetylpenicillamine]
function measured with the rotarod [1]: significant improvement | Animal body weight [2]: significantly increased | volume of cerebral infarction [3]: no significant difference | function measured with the adhesive removal test [4]: significant improvement

Nc1nc2c(nc(Br)n2[C@@H]2O[C@@H]3COP(=O)(O)O[C@H]3[C@H]2O)c(=O)[nH]1 [8-BrcGMP, 8-Br-cGMP]
capillary-like tube formation ([5]; 8-BrcGMP 1 mM): significantly (p<0.05) increased

O=c1onc2cnc3ccccc3n12 [ODQ, 1H-[1,2,4]oxadiazolo[4,3-a]quinoxaline-1-one]
inhibition of DETANONOate-induced capillary-like tube formation ([5]; DETANONOate in the presence of ODQ): completely inhibited | inhibition of 8-BrcGMP-induced capillary-like tube formation ([5]; ODQ): did not significantly inhibit | inhibition of Sildenafil-induced capillary-like tube formation ([5]; ODQ 10 μM, Sildenafil 300 nM): significantly inhibited

CCCOc1ccccc1-c1nc2nn[nH]c2c(=O)[nH]1 [zaprinast]
cGMP release (cGMP): increase of cGMP release | dilatation of cerebral arteries (dog cerebral arteries): produces dilatation of dog cerebral arteries | dilatation of the basilar artery (basilar artery): elicits dilatation of the basilar artery
